Laboratory results published in patent US20250171430A1, “PYRAZOLYL COMPOUNDS AS KV7 CHANNEL ACTIVATORS” (Biohaven Therapeutics Ltd., priority 2022, published 2025).

Target: T1, Kv7.2/7.3 (Homo sapiens, UniProt O43525+O43526)
T1 construct: Kv7.2 tetracycline-induced, Kv7.3 constitutive
Assay: Kv7.2/7.3 Activation Assay (Thallium Flux Assay)
Format: cell-based
Details: hKV7.2/7.3 cell line; test compound at single concentration of 10 μM; fluorescence at 90 sec normalized to positive control (retigabine, 30 μM)
Source text: The Thallium Flux Assay is used as a surrogate indicator of potassium channel activity.
The experimental protocol was adapted from the FluxOR™ II Green Potassium Ion Channel Assay User Guide (Pub. No. MAN0016084, Invitrogen). Conditions were optimized for the Kv7.2/7.3 cell line.
Cell Line: The hKV7.2/7.3 cell line was obtained from Chantest (cat. #CT6147).
Cell Culture: Kv7.2/7.3 cells were maintained in a media containing DMEM/F12; 50/50 (Fisher 11-330), 10% Fetal Bovine Serum (FBS) (Fisher 26-140), 100 units/mL Penicillin-Streptomycin (Fisher 15-140), 0.005 mg/ml Blasticidin (InvivoGen ant-bl-1), 0.5 mg/mL Geneticin (InvivoGen ant-gn-5), and 0.1 mg/mL Zeocin (Fisher R25001). One day prior to experimentation, cells were plated in 96 well clear bottom plates (Corning cat. #353219) in a media without Blasticidin, Geneticin, or Zeocin. In this cell line Kv7.3 channel expression is controlled by a constitutive promoter. Kv7.2 channel expression was induced by adding tetracycline (Sigma T7660) at a final concentration of 10 ng/mL overnight in a cell culture incubator at 37° C. and 5% CO2. On the day of assay, the cell culture medium in the 96-well plates was replaced by assay buffer containing the thallium-sensitive fluorescent sensor, FluxOR II Green prepared according to manufacturer's instructions. The 96-well plates were then incubated for 1 h at 37° C. Following the incubation, the FluxOR II Green-containing solution was replaced with extracellular solution.
Test Compound Plates: The test compound is diluted in a mixture of 0.1% DMSO/extracellular solution at a single concentration of 10 μM. Dilutions were made on a Biomek NXP (BECKMAN COULTER). Extracellular solution contained (in mM: 145 NaCl, 4 KCl, 2 CaCl2), 1 MgCl2, 10 HEPES, and 10 Glucose, pH 7.4).
Measurement and data analysis: Thallium-flux-mediated changes in intracellular fluorescence were made using a plate reader (Enspire, Perkin Elmer) set with an excitation wavelength of 475 nm and an emission wavelength of 530 nm. After a 15 sec baseline measurement, the stimulus buffer containing thallium and potassium was added to the 96-well plate containing FluxOR II Green-loaded cells and test compounds. Fluorescence values at 90 sec were normalized to the positive control (retigabine, 30 μM) and test compound activities were assigned categories according to the formula: “No Activity <0.15, “+” Moderate Activity 0.15-0.7, and “++” High Activity >0.7.

SMILES | Kv7.2/7.3 Activity
CC(C)c1c(NC(=O)C[C@H]2CC(F)(F)C2(F)F)nn(C)c1-c1ccc(OC(F)(F)F)cc1 [Compound 25, (S)-N-(4-isopropyl-1-methyl-5-(4-(trifluoromethoxy)phenyl)-1H-pyrazol-3-yl)-2-(2,2,3,3-tetrafluorocyclobutyl)acetamide] | ++ (“++” High Activity ≥ 0.7)
CC(C)c1c(NC(=O)CC2(C(F)(F)F)CC2)nn(C)c1-c1ccc(OC(F)(F)F)cc1 [Compound 26, N-(4-isopropyl-1-methyl-5-(4-(trifluoromethoxy)phenyl)-1H-pyrazol-3-yl)-2-(1-(trifluoromethyl)cyclopropyl)acetamide] | ++ (“++” High Activity ≥ 0.7)
Cn1nc(NC(=O)CC(C)(C)C)c(C2CCC2)c1-c1ccc(C(C)(C)O)cc1 [Compound 29, N-(4-cyclobutyl-5-(4-(2-hydroxypropan-2-yl)phenyl)-1-methyl-1H-pyrazol-3-yl)-3,3-dimethylbutanamide] | − (“−” No Activity < 0.15)
Cn1nc(NC(=O)C[C@@H]2CC(F)(F)C2(F)F)c(C2CCC2)c1-c1ccc(OC(F)(F)F)cc1 [Compound 30, (R)-N-(4-cyclobutyl-1-methyl-5-(4-(trifluoromethoxy)phenyl)-1H-pyrazol-3-yl)-2-(2,2,3,3-tetrafluorocyclobutyl)acetamide] | ++ (“++” High Activity ≥ 0.7)
Cn1nc(NC(=O)CC2(C(F)(F)F)CC2)c(C2CCC2)c1-c1ccc(OC(F)(F)F)cc1 [Compound 31, N-(4-cyclobutyl-1-methyl-5-(4-(trifluoromethoxy)phenyl)-1H-pyrazol-3-yl)-2-(1-(trifluoromethyl)cyclopropyl)acetamide] | ++ (“++” High Activity ≥ 0.7)
Cn1nc(NC(=O)C[C@@H]2CC(F)(F)C2(F)F)c(C2CCC2)c1C(F)(F)c1ccccc1 [Compound 32, (R)-N-(4-cyclobutyl-5-(difluoro(phenyl)methyl)-1-methyl-1H-pyrazol-3-yl)-2-(2,2,3,3-tetrafluorocyclobutyl)acetamide] | ++ (“++” High Activity ≥ 0.7)
Cn1nc(NC(=O)C[C@H]2CC(F)(F)C2(F)F)c(C2CCC2)c1-c1ccc(OC(F)(F)F)cc1 [Compound 33, (S)-N-(4-cyclobutyl-1-methyl-5-(4-(trifluoromethoxy)phenyl)-1H-pyrazol-3-yl)-2-(2,2,3,3-tetrafluorocyclobutyl)acetamide] | ++ (“++” High Activity ≥ 0.7)
Cn1nc(NC(=O)C[C@H]2CC(F)(F)C2(F)F)c(C2CCC2)c1-c1ccc(C(C)(C)O)cc1 [Compound 34, (S)-N-(4-cyclobutyl-5-(4-(2-hydroxypropan-2-yl)phenyl)-1-methyl-1H-pyrazol-3-yl)-2-(2,2,3,3-tetrafluorocyclobutyl)acetamide] | + (“+” Moderate Activity 0.15-0.7)
Cn1nc(NC(=O)C[C@H]2CC(F)(F)C2(F)F)c(C2CCC2)c1-c1ccc(C(F)(F)F)cn1 [Compound 35, (S)-N-(4-cyclobutyl-1-methyl-5-(5-(trifluoromethyl)pyridin-2-yl)-1H-pyrazol-3-yl)-2-(2,2,3,3-tetrafluorocyclobutyl)acetamide] | + (“+” Moderate Activity 0.15-0.7)
Cn1nc(NC(=O)CC2(C(F)(F)F)CC2)c(C2CCC2)c1-c1ccc(C(F)(F)F)cn1 [Compound 36, N-(4-cyclobutyl-1-methyl-5-(5-(trifluoromethyl)pyridin-2-yl)-1H-pyrazol-3-yl)-2-(1-(trifluoromethyl)cyclopropyl)acetamide] | − (“−” No Activity < 0.15)
Cn1nc(NC(=O)C[C@@H]2CC(F)(F)C2(F)F)c(CC(F)(F)F)c1-c1ccccc1 [Compound 37, (R)-N-(1-methyl-5-phenyl-4-(2,2,2-trifluoroethyl)-1H-pyrazol-3-yl)-2-(2,2,3,3-tetrafluorocyclobutyl)acetamide] | ++ (“++” High Activity ≥ 0.7)
Cn1nc(NC(=O)C[C@H]2CC(F)(F)C2(F)F)c(CC(F)(F)F)c1-c1ccccc1 [Compound 38, (S)-N-(1-methyl-5-phenyl-4-(2,2,2-trifluoroethyl)-1H-pyrazol-3-yl)-2-(2,2,3,3-tetrafluorocyclobutyl)acetamide] | ++ (“++” High Activity ≥ 0.7)
Cn1nc(NC(=O)C[C@H]2CC(F)(F)C2(F)F)c(C2CCC2)c1C(F)(F)c1ccccc1 [Compound 39, (S)-N-(4-cyclobutyl-5-(difluoro(phenyl)methyl)-1-methyl-1H-pyrazol-3-yl)-2-(2,2,3,3-tetrafluorocyclobutyl)acetamide] | ++ (“++” High Activity ≥ 0.7)
Cn1nc(NC(=O)C[C@H]2CC(F)(F)C2(F)F)c(C2CC(F)(F)C2)c1-c1ccc(OC(F)(F)F)cc1 [Compound 40, (S)-N-(4-(3,3-difluorocyclobutyl)-1-methyl-5-(4-(trifluoromethoxy)phenyl)-1H-pyrazol-3-yl)-2-(2,2,3,3-tetrafluorocyclobutyl)acetamide] | ++ (“++” High Activity ≥ 0.7)
Cn1nc(NC(=O)CC2(C(F)(F)F)CC2)c(C2CC(F)(F)C2)c1-c1ccc(OC(F)(F)F)cc1 [Compound 42, N-(4-(3,3-difluorocyclobutyl)-1-methyl-5-(4-(trifluoromethoxy)phenyl)-1H-pyrazol-3-yl)-2-(1-(trifluoromethyl)cyclopropyl)acetamide] | + (“+” Moderate Activity 0.15-0.7)
Cn1nc(NC(=O)CC(C)(C)C2CC2)c(C2CC(F)(F)C2)c1-c1ccc(OC(F)(F)F)cc1 [Compound 43, 3-cyclopropyl-N-(4-(3,3-difluorocyclobutyl)-1-methyl-5-(4-(trifluoromethoxy)phenyl)-1H-pyrazol-3-yl)-3-methylbutanamide] | + (“+” Moderate Activity 0.15-0.7)
Cn1nc(NC(=O)C[C@@H]2CC(F)(F)C2(F)F)c(C2CCC2)c1C(=O)c1ccccc1 [Compound 44, (R)-N-(5-benzoyl-4-cyclobutyl-1-methyl-1H-pyrazol-3-yl)-2-(2,2,3,3-tetrafluorocyclobutyl)acetamide] | ++ (“++” High Activity ≥ 0.7)
N#CCn1nc(NC(=O)C[C@@H]2CC(F)(F)C2(F)F)c(C2CCC2)c1-c1ccc(F)cc1 [Compound 45, (R)-N-(1-(cyanomethyl)-4-cyclobutyl-5-(4-fluorophenyl)-1H-pyrazol-3-yl)-2-(2,2,3,3-tetrafluorocyclobutyl)acetamide] | ++ (“++” High Activity ≥ 0.7)
N#CCn1nc(NC(=O)C[C@H]2CC(F)(F)C2(F)F)c(C2CCC2)c1-c1ccc(F)cc1 [Compound 46, (S)-N-(1-(cyanomethyl)-4-cyclobutyl-5-(4-fluorophenyl)-1H-pyrazol-3-yl)-2-(2,2,3,3-tetrafluorocyclobutyl)acetamide] | + (“+” Moderate Activity 0.15-0.7)
Cn1nc(NC(=O)C[C@@H]2CC(F)(F)C2(F)F)c(C2CCC2)c1-c1cccc(C(C)(C)O)c1 [Compound 47, (R)-N-(4-cyclobutyl-5-(3-(2-hydroxypropan-2-yl)phenyl)-1-methyl-1H-pyrazol-3-yl)-2-(2,2,3,3-tetrafluorocyclobutyl)acetamide] | + (“+” Moderate Activity 0.15-0.7)
Cn1nc(NC(=O)C[C@H]2CC(F)(F)C2(F)F)c(C2CCC2)c1-c1cccc(C(C)(C)O)c1 [Compound 48, (S)-N-(4-cyclobutyl-5-(3-(2-hydroxypropan-2-yl)phenyl)-1-methyl-1H-pyrazol-3-yl)-2-(2,2,3,3-tetrafluorocyclobutyl)acetamide] | + (“+” Moderate Activity 0.15-0.7)
Cn1nc(NC(=O)CC(C)(C)C(F)(F)F)c(C2CCC2)c1-c1cnc(C(F)(F)F)s1 [Compound 49, N-(4-cyclobutyl-1-methyl-5-(2-(trifluoromethyl)thiazol-5-yl)-1H-pyrazol-3-yl)-4,4,4-trifluoro-3,3-dimethylbutanamide] | + (“+” Moderate Activity 0.15-0.7)
Cn1nc(NC(=O)CC2(C(F)(F)F)CC2)c(C2CCC2)c1-c1cnc(C(F)(F)F)s1 [Compound 50, N-(4-cyclobutyl-1-methyl-5-(2-(trifluoromethyl)thiazol-5-yl)-1H-pyrazol-3-yl)-2-(1-(trifluoromethyl)cyclopropyl)acetamide] | − (“−” No Activity < 0.15)
